Data from patent US20160193240A1, “Ulmoside-A: Useful For Prevention Or Cure Of Metabolic Diseases” (COUNCIL OF SCIENTIFIC & INDUSTRIAL RESEARCH, priority 2013, published 2016).
Marks after values point to notes of the source that are not given here.

Experiments:
[1] = system: Mouse stromal vascular fractions (SVF); assay: Brown adipose marker expression and mitochondrial copy number in mouse stromal vascular fractions; assay type: cell-based
Method: B. Mouse stromal vascular fractions (SVF) isolated from epididymal fat pads using collagenase digestion was differentiated in presence or absence of 10 nM ULMA and were analyzed for indicated mRNA expressions. **p<0.01, ***p<0.001 as determined by two tailed unpaired student's t-test.
C. Cells from identical set of experiments as described in FIGS. 5A and 5B or human SVFs prepared by collagenase digestions were analyzed by western blot analysis for determination of UCP-1, UCP-2 and PGC-1α protein level. Beta-actin was used as a loading control. Data is representative of three independent experiments.
D. Mouse SVFs differentiated in presence or absence of 10 nM ULMA were evaluated for mitochondrial copy number. Total cellular DNA was isolated from these cells by standard procedure (using a genomic DNA isolation kit; Macherey Nagel; according to manufacturer's instructions) and the mitochondrial DNA content was measured by QRT-PCR based measurement of mitochondrial cytochrome b (Cytb) by qPCR and normalized with genomic glycerol three phosphate dehydrogenase DNA level. Data represent mean±SEM from three independent experiments performed in triplicates. **p<0.01 as determined by two tailed unpaired student's t-test.
Mouse stromal vascular fractions (SVF) from epididymal fat pad were prepared using standard collagenase digestion method. Human SVF was prepared from human lipoaspirates (subcutaneous) collected from an obese individual undergoing liposuction following approval of Institutional Ethical Committee. To isolate SVFs, epidymal fat pads tissue or lipoaspirates were washed 6× in PBS and then were dispensed in tissue culture flasks. 0.2% sterile collagenase (Sigma) solution containing 1× antibiotic-antimycotic (Invitrogen) was then added to the adipose and the flasks were shaken vigorously for 10 seconds. The flasks were then incubated at 37° C. on a shaker for 2 hours with manual shaking of the flasks for 5-10 seconds every 15 min. After completion of digestion, FBS was added to the final concentration of 10% to the flasks, mixed and the collagenase digested tissue were then dispensed in 50 ml conical tubes and were centrifuged at 400 g for 10 min at room temp. The supernatant was discarded and the pellets constituting the SVFs were then reconstituted in culture medium (DMEM/F12 50:50+10% FBS) and plated in T25 tissue culture flasks and cultured for further experiments.
The SVFs were differentiated as for 3T3L-1 (described above), in presence of ULMA or vehicle (10 d for mouse SVF and 21 d for human SVF), following which they were lysed and used for QPCR or western blot analysis.
For western blot-based determination of UCP-1, UCP-2 and PGC-1α protein level, cells from an identical set of experiment were lysed and western blotted with UCP-1, UCP-2 (Abcam), PGC-1α(Calbiochem), or beta-actin (cell signaling technology; used as a loading control) as described above.

[2] = system: db/db mice; assay: Random (fed) blood glucose in db/db mice; assay type: in vivo, mouse; settings: 5 mg/kg ULMA for 15 d
Method: 8 week old db/db mice were treated with vehicle (V; 1% gum acacia) or with 5 mg/kg ULMA for 15 days and the fed blood glucose was measured by a glucometer (Gluco Dr. Super sensor; that is capable of measuring 10-900 mg/dl glucose) ** p<0.01, ***p<0.005, n=6.
8 week old female db/db mice (n=6) weighing 40-50 g were divided into 2 groups and maintained as above. Control groups received vehicle (1% gum acacia) and ULMA groups received 5 mg/kg bw ULMA in 1% gum acacia for […]. Body weight and blood glucose were measured at the beginning and end of the studies.

[3] = system: wistar rats; assay: Dexamethasone-mediated reduction in serum osteocalcin in rats (ELISA); assay type: in vivo, rat; settings: Dex + ULMA, 14 days
Method: Food intake was measured daily and the rats were weighed each week. The rats were fasted overnight (O/N) on day 14th and on day 15th oral glucose tolerance test was performed. Following oral glucose tolerance test (OGTT), rats were kept with food and water ad libitum for one day. On day 16th, rats were fasted again O/N and then euthanized. At autopsy, from 5 animals/group, tissues were collected and snap frozen in liquid nitrogen. Blood was collected from cardiac punctures. Plasma was separated from whole blood by centrifugation at 3000 rpm for 20 min immediately after collection of blood and stored at −80° C. until further analysis. […] (quadriceps) skeletal muscles were processed for RNA and protein extraction, followed by quantitative real-time PCR (QRT-PCR) analysis. Two animals from each group were used for photography post autopsy.

[4] = differentiated in presence of ULMA, 10 d

O=C1c2c(cc(O)c([C@@H]3O[C@H](CO)[C@@H](O)[C@H](O)[C@H]3O)c2O)O[C@@H](c2ccc(O)c(O)c2)[C@@H]1O [ULMA, (2S,3S)-(+)-3′,4′,5,7-tetrahydroxydihydroflavonol-6-C-β-D-glucopyranoside]
PGC-1α mRNA level ([1]; 10 nM, 10 d differentiation): significant increase
PRDM16 mRNA level ([1]; 10 nM, 10 d differentiation): significant increase
UCP-1 mRNA level ([1]; 10 nM, 10 d differentiation): significant increase
UCP-2 mRNA level ([1]; 10 nM, 10 d differentiation): significant increase
mitochondrial DNA copy number (cytb level) ([1]; 10 nM, differentiated mouse SVFs): significantly higher
PGC-1α protein level [1, 4]: elevated
UCPs protein level [1, 4]: elevated
fed blood glucose in comparison to vehicle treated control mice [2]: significantly reduced fed blood glucose
Osteocalcin (ng/ml) [3]: 387.7 ± 16.1^a ng/ml
